Among the test systems are COLO 205; EKVX; HCT-15; HL-60; HOP-62; MOLT-4; Malme-3M; NCI-H226; OVCAR-3; OVCAR-4; OVCAR-5; SF-268; SF-539; SNB-19; SR; UACC-257; CCRF-CEM.
Common to all, as to assay: NCI tumour cell line growth inhibition, 48 h

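In this assay, cells in 96-well plates receive the compound at five concentrations for 48 hours. Endpoints are linearly interpolated between the surrounding concentrations. The concentration for 50% growth inhibition is given as GI50.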 Active and inactive are the calls of the source. Rule as the data show it: active = GI50 up to about 1.1 µM and inactive = higher.

On to `Nc1nc(SCc2ccccc2)c2ncn(Cc3ccccc3)c2n1`, for which the GI50 with COLO 205 is > 100 µM (inactive); with EKVX it was > 100 µM (inactive); in the test with HCT-15, > 81.3 µM; in the test with HL-60, 4.56 µM (inactive); in the test on HOP-62, > 100 µM (inactive); in the test on MOLT-4, > 100 µM (inactive). Also, the GI50 in the test on Malme-3M was > 57.9 µM (inactive); in the test with NCI-H226, > 100 µM (inactive); in the test on OVCAR-3, > 67.5 µM (inactive); in the test on OVCAR-4, > 100 µM (inactive); in the test with OVCAR-5, > 100 µM (inactive); with SF-268, > 84.7 µM (inactive). The GI50 with SF-539 is > 100 µM (inactive); in the test with SNB-19, > 100 µM (inactive); in the test on SR it was > 56.9 µM (inactive); with UACC-257, > 71 µM (inactive).

Turning to `Cc1cc(C(=O)CSC(=S)SC(C)(C)C)ccc1Cl`, the GI50 was 18.4 µM (inactive) in the test on COLO 205; 24.5 µM (inactive) with EKVX; 22.3 µM in the test on HCT-15; 18.4 µM (inactive) in the test with HL-60; 17.4 µM (inactive) with HOP-62; 13.8 µM (inactive) in the test with MOLT-4. Further, the GI50 with Malme-3M was 16.8 µM (inactive); with NCI-H226, 27 µM (inactive); in the test with OVCAR-3 it was 16.4 µM (inactive); in the test on OVCAR-4, 31 µM (inactive); with OVCAR-5 it was 21.9 µM (inactive); in the test with SF-268, 18.2 µM (inactive). In addition, the GI50 in the test on SF-539 was 18.7 µM (inactive); with SNB-19, 16 µM (inactive); with SR, 16.9 µM (inactive); with UACC-257 it was 18.2 µM (inactive).

With `O=C1/C(=C/c2ccc([N+](=O)[O-])cc2)Oc2cc(O)ccc21`, the GI50 in the test on CCRF-CEM was 31 µM (inactive); in the test on COLO 205 it was > 10 µM (inactive); in the test with EKVX, 33.7 µM (inactive); with HCT-15 it was 25.1 µM; in the test on HL-60, 17.5 µM (inactive); with HOP-62, 31.2 µM (inactive). The GI50 with MOLT-4 was 14.6 µM (inactive); with NCI-H226, 13.2 µM (inactive); with OVCAR-3, 27.5 µM (inactive); with OVCAR-4 it was 39.6 µM (inactive); in the test on SF-268, 61 µM (inactive); with SF-539 it was 23.4 µM (inactive). In addition, the values for the GI50 in the test with SNB-19, with SR and in the test with UACC-257 were 29.1 µM (inactive), 16.9 µM (inactive) and 37.7 µM (inactive), respectively.

Take `CC1(C)O[C@@H](CP(c2ccc3ccccc3c2)c2ccc3ccccc3c2)[C@H](CP(c2ccc3ccccc3c2)c2ccc3ccccc3c2)O1`: the GI50 with CCRF-CEM was > 100 µM (inactive); in the test with COLO 205, > 100 µM (inactive); with EKVX, > 100 µM (inactive); in the test on HCT-15, > 100 µM; in the test on HOP-62, > 100 µM (inactive); in the test with MOLT-4 it was 78.9 µM (inactive). The GI50 in the test on NCI-H226 is 72.6 µM (inactive); in the test with OVCAR-3 it was 58.9 µM (inactive); in the test on OVCAR-4 it was > 100 µM (inactive); in the test on OVCAR-5 it was > 100 µM (inactive); with SF-268, > 100 µM (inactive); with SNB-19, > 100 µM (inactive). In addition, the GI50 is 77.8 µM (inactive) in the test with SR and > 100 µM (inactive) in the test with UACC-257.

Regarding `Cc1cc(S(=O)(=O)[N-]/C(=N/S(=O)(=O)c2cc(Cl)sc2Cl)[n+]2ccc(N(C)C)cc2)c(S)cc1Cl`, the GI50 in the test on CCRF-CEM was 64 µM (inactive); in the test with EKVX, > 100 µM (inactive); in the test on HCT-15, 42.7 µM; in the test with HL-60 it was > 100 µM (inactive); in the test with HOP-62, 42.3 µM (inactive); in the test with MOLT-4 it was 84.3 µM (inactive). Besides, the GI50 is 39.3 µM (inactive) in the test on NCI-H226; 96.6 µM (inactive) in the test with OVCAR-3; 37.2 µM (inactive) in the test on OVCAR-4; 49.3 µM (inactive) in the test with OVCAR-5; 40.1 µM (inactive) in the test with SF-268; 46.6 µM (inactive) with SF-539. The values for the GI50 with SR and in the test with UACC-257 were 39.4 µM (inactive) and > 100 µM (inactive), respectively.

With `c1csc(-c2ccc(-c3ccc(-c4ccc(-c5cccs5)s4)s3)s2)c1`, the GI50 in the test with CCRF-CEM was 26.5 µM (inactive); in the test on COLO 205 it was > 100 µM (inactive); in the test on EKVX it was > 100 µM (inactive); in the test with HCT-15 it was > 100 µM; in the test on HL-60, 14.8 µM (inactive); in the test on HOP-62, 34 µM (inactive). The GI50 in the test with MOLT-4 was 31.6 µM (inactive); in the test on NCI-H226 it was > 100 µM (inactive); in the test on OVCAR-3, > 100 µM (inactive); with OVCAR-5, > 100 µM (inactive); in the test with SF-268 it was > 100 µM (inactive); in the test with SF-539, > 100 µM (inactive). Further, the GI50 in the test on SR is 35.7 µM (inactive); in the test on UACC-257, > 100 µM (inactive).

Take `CSc1nn(C)cc2nc(C)nc1-2`: the GI50 in the test on CCRF-CEM was > 100 µM (inactive); in the test with COLO 205, > 100 µM (inactive); in the test with EKVX it was > 100 µM (inactive); with HCT-15, > 100 µM; in the test on HL-60, > 100 µM (inactive); in the test with HOP-62, > 100 µM (inactive). Besides, the GI50 in the test with MOLT-4, in the test on NCI-H226, with OVCAR-3, in the test on OVCAR-5, with SF-268 and in the test with SF-539 was > 100 µM (inactive) in each case. The GI50 with SNB-19, with SR and in the test on UACC-257 was > 100 µM (inactive) in each case.

For the molecule `N#C[C@@H](c1nc2ccccc2s1)c1ncccc1[N+](=O)[O-]`, the GI50 in the test on CCRF-CEM was > 10 µM (inactive); with COLO 205, 4.31 µM (inactive); in the test with EKVX it was 5.89 µM (inactive); in the test on HCT-15, 7.13 µM; in the test with HL-60, > 10 µM (inactive); with HOP-62 it was 10.4 µM (inactive). In addition, the GI50 in the test with MOLT-4 is 9.12 µM (inactive); with Malme-3M it was 2.87 µM (inactive); in the test on NCI-H226, 5.55 µM (inactive); with OVCAR-3 it was 2.48 µM (inactive); in the test on OVCAR-4, 7.91 µM (inactive); in the test on OVCAR-5, 11.9 µM (inactive). For the same molecule, the GI50 with SF-268 is 8.11 µM (inactive); with SNB-19 it was 3.94 µM (inactive); in the test on SR, 4.67 µM (inactive); in the test with UACC-257 it was 2.12 µM (inactive).

Turning to `CC1(C)/C(=N\NC(N)=O)C2CCC1C2` (stereo not given), the GI50 in the test with CCRF-CEM was > 100 µM (inactive); in the test with COLO 205, > 100 µM (inactive); with EKVX it was > 100 µM (inactive); in the test on HCT-15, > 100 µM; in the test with HL-60, > 100 µM (inactive); in the test with HOP-62, > 100 µM (inactive). For the same molecule, the GI50 with MOLT-4, in the test on Malme-3M, in the test on NCI-H226, in the test on OVCAR-3, in the test with OVCAR-4 and in the test on OVCAR-5 was > 100 µM (inactive) in each case. Also, the GI50 with SF-268, in the test on SNB-19, in the test on SR and in the test with UACC-257 was > 100 µM (inactive) throughout.

For the molecule `CCCCCCCCCCCCCCCCOP(=O)(O)OCC(N)C(=O)O` (stereo not given), the GI50 in the test with CCRF-CEM was 22.8 µM (inactive); in the test on COLO 205, 20.7 µM (inactive); in the test on EKVX it was 54.1 µM (inactive); in the test on HCT-15 it was 27.7 µM; in the test on HOP-62, 25 µM (inactive); with MOLT-4, 11.5 µM (inactive). Also, the GI50 was 63.2 µM (inactive) in the test with Malme-3M; 21 µM (inactive) in the test on NCI-H226; 17.4 µM (inactive) in the test with OVCAR-3; 18.7 µM (inactive) with OVCAR-4; 20.4 µM (inactive) in the test on OVCAR-5; 18.5 µM (inactive) in the test with SF-268. Moreover, the GI50 in the test on SF-539 is 21.3 µM (inactive); with SNB-19, 16.4 µM (inactive); in the test on SR, 33 µM (inactive); in the test on UACC-257 it was 52.5 µM (inactive).

In the case of `CCNC(=S)NNC(=O)c1ccccc1Nc1ccccc1C(=O)NNC(=S)NCC`, the GI50 with CCRF-CEM was > 100 µM (inactive); with COLO 205 it was > 100 µM (inactive); in the test on EKVX, > 100 µM (inactive); in the test with HCT-15, > 100 µM; in the test on HL-60, > 100 µM (inactive); in the test with HOP-62 it was > 100 µM (inactive). In addition, the GI50 in the test on MOLT-4, with Malme-3M, in the test on NCI-H226, in the test on OVCAR-3, in the test with OVCAR-4 and in the test on OVCAR-5 was > 100 µM (inactive) in each case. In addition, the GI50 in the test with SNB-19 and in the test with SR was > 100 µM (inactive) throughout.

Take `CCOC(=O)c1cc(C)nc2c1c(=O)n(-c1ccccc1)c(=O)n2CCCCN1CCN(c2ccccc2)CC1`: the GI50 with COLO 205 is 60 µM (inactive); in the test on EKVX, > 100 µM (inactive); in the test with HCT-15, 49.3 µM; with HL-60, 27 µM (inactive); with HOP-62, > 100 µM (inactive); in the test on MOLT-4, 24.5 µM (inactive). Besides, the GI50 in the test with Malme-3M is > 100 µM (inactive); in the test with NCI-H226, > 100 µM (inactive); in the test on OVCAR-4, 34 µM (inactive); in the test with OVCAR-5, > 100 µM (inactive); in the test on SF-268 it was > 100 µM (inactive); with SR it was 19 µM (inactive). Moreover, the GI50 in the test on UACC-257 is 27.8 µM (inactive).

Turning to `CC(O)CCCCC(O)CCC[C@H](O)[C@H]1CCC([C@H]2CCC([C@@H](O)CCCCCCCCCCCCC3=C[C@H](C)OC3=O)O2)O1` (stereo not given in full), the GI50 in the test with CCRF-CEM was 9.38 µM (inactive); with COLO 205 it was 11.1 µM (inactive); in the test with EKVX it was 8.15 µM (inactive); with HCT-15 it was 14.7 µM; with HL-60 it was 9.79 µM (inactive); with HOP-62, 10.6 µM (inactive). Besides, the GI50 is 3.9 µM (inactive) in the test on MOLT-4; 9.59 µM (inactive) in the test on NCI-H226; 9.51 µM (inactive) with OVCAR-3; 12.6 µM (inactive) with OVCAR-4; 11.4 µM (inactive) in the test on OVCAR-5; 11.6 µM (inactive) in the test on SF-268. Further, the GI50 with SF-539 is 10.4 µM (inactive); in the test with SNB-19, 10.3 µM (inactive); in the test on SR, 0.0075 µM (active); in the test on UACC-257 it was 9.33 µM (inactive).
